Measurements taken from PubChem BioAssay (NCI).
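Compound exposure: 48 hours, 5 concentrations, 96-well plates. Abbreviation: GI50, concentration required for 50% inhibition of growth. TGI denotes the concentration required for complete inhibition of growth.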

Assays:
Test in all cases: growth of human tumour cells (NCI), 48 h
[1] = tested on: SR leukemia
[2] = tested on: SF-539 CNS
[3] = tested on: OVCAR-4 ovarian
[4] = tested on: SNB-75 CNS
[5] = tested on: NCI-H522 lung
[6] = tested on: NCI/ADR-RES ovarian
[7] = tested on: UO-31 renal
[8] = tested on: SW-620 colon
[9] = tested on: HT29 colon
[10] = tested on: HL-60(TB) leukemia
[11] = tested on: HCC-2998 colon
[12] = tested on: U251 CNS
[13] = tested on: COLO 205 colon
[14] = tested on: PC-3 prostate
[15] = tested on: KM12 colon
[16] = tested on: UACC-62 melanoma
[17] = tested on: RPMI-8226 leukemia
[18] = tested on: MDA-MB-435
[19] = tested on: ACHN renal
[20] = tested on: SN12C renal
[21] = tested on: A498 renal
[22] = tested on: UACC-257 melanoma
[23] = tested on: DU-145 prostate
[24] = tested on: MCF7 breast
[25] = tested on: T-47D breast
[26] = tested on: OVCAR-5 ovarian
[27] = tested on: HOP-62 NSCLC
[28] = tested on: OVCAR-3 ovarian
[29] = tested on: SK-OV-3 ovarian
[30] = tested on: NCI-H460 lung
[31] = tested on: HCT-15 colon
[32] = tested on: BT-549 breast
[33] = tested on: HS 578T breast
[34] = tested on: IGROV1 ovarian
[35] = tested on: SK-MEL-28 melanoma
[36] = tested on: A549 NSCLC
[37] = tested on: MDA-MB-231 breast
[38] = tested on: CAKI-1 renal
[39] = tested on: SK-MEL-2 melanoma
[40] = tested on: M14 melanoma
[41] = tested on: NCI-H226 lung
[42] = tested on: HOP-92 NSCLC
[43] = tested on: RXF 393 renal
[44] = tested on: MALME-3M melanoma
[45] = tested on: K-562 leukemia
[46] = tested on: SK-MEL-5 melanoma
[47] = tested on: LOX IMVI melanoma
[48] = tested on: SF-295 CNS
[49] = tested on: MOLT-4 leukemia
[50] = tested on: TK-10 renal

In the case of `COc1cc(/C=N/Nc2ccnc3cc(Cl)ccc23)cc(OC)c1O`, the GI50 [1] is reported as 1.9 µM, the TGI [1] is reported as 4.72 µM and the GI50 [2] is reported as 1.75 µM. The TGI [2] was 3.16 µM, the GI50 [3] was 1.85 µM and the TGI [3] was 3.63 µM. For the same compound, the GI50 [4] was 1.67 µM, the TGI [4] was 3.08 µM and the GI50 [5] was 1.66 µM. It also gave a TGI [5] of 3.2 µM, a GI50 [6] of 2.13 µM and a TGI [6] of 4.51 µM. For the same compound, the GI50 [7] was 1.69 µM, the TGI [7] was 3.12 µM and the GI50 [8] was 1.69 µM. It also gave a TGI [8] of 3.66 µM, a GI50 [9] of 1.81 µM and a TGI [9] of 3.34 µM. It also gave a GI50 [10] of 1.89 µM, a TGI [10] of 3.86 µM and a GI50 [11] of 1.73 µM. For the same compound, the TGI [11] was 3.23 µM, the GI50 [12] was 1.81 µM and the TGI [12] was 3.26 µM. The GI50 [13] was 1.86 µM, the TGI [13] was 3.42 µM and the GI50 [14] was 1.66 µM. For the same compound, the TGI [14] was 3.18 µM, the GI50 [15] was 2.39 µM and the TGI [15] was 6.05 µM. For the same compound, the GI50 [16] was 1.71 µM, the TGI [16] was 3.25 µM and the GI50 [17] was 2.18 µM. The TGI [17] was 4.78 µM, the GI50 [18] was 1.69 µM and the TGI [18] was 3.07 µM. The GI50 [19] was 1.83 µM, the TGI [19] was 3.23 µM and the GI50 [20] was 1.8 µM. It also gave a TGI [20] of 3.56 µM, a GI50 [21] of 18.9 µM and a TGI [21] of 38.5 µM. It also gave a GI50 [22] of 1.77 µM, a TGI [22] of 3.3 µM and a GI50 [23] of 1.9 µM. For the same compound, the TGI [23] was 3.61 µM, the GI50 [24] was 1.58 µM and the TGI [24] was 3.37 µM. It also gave a GI50 [25] of 1.8 µM, a TGI [25] of 3.9 µM and a GI50 [26] of 1.67 µM. For the same compound, the TGI [26] was 3.08 µM, the GI50 [27] was 1.69 µM and the TGI [27] was 3.13 µM. For the same compound, the GI50 [28] was 2.41 µM, the TGI [28] was 5.47 µM and the GI50 [29] was 1.72 µM. The TGI [29] was 3.14 µM, the GI50 [30] was 2.05 µM and the TGI [30] was 3.73 µM. For the same compound, the GI50 [31] was 1.78 µM, the TGI [31] was 3.43 µM and the GI50 [32] was 1.75 µM. For the same compound, the TGI [32] was 3.27 µM, the GI50 [33] was 2.03 µM and the TGI [33] was 4.44 µM. The GI50 [34] was 1.85 µM, the TGI [34] was 3.63 µM and the GI50 [35] was 1.79 µM. The TGI [35] was 3.21 µM, the GI50 [36] was 1.74 µM and the TGI [36] was 3.21 µM. For the same compound, the GI50 [37] was 2.05 µM, the TGI [37] was 4.05 µM and the GI50 [38] was 1.66 µM. The TGI [38] was 3.02 µM, the GI50 [39] was 16.3 µM and the TGI [39] was 32.8 µM. It also gave a GI50 [40] of 1.76 µM, a TGI [40] of 3.22 µM and a GI50 [41] of 1.79 µM. For the same compound, the TGI [41] was 3.67 µM, the GI50 [42] was 1.44 µM and the TGI [42] was 2.89 µM. For the same compound, the GI50 [43] was 1.75 µM, the TGI [43] was 3.31 µM and the GI50 [44] was 1.87 µM. For the same compound, the TGI [44] was 3.44 µM, the GI50 [45] was 1.63 µM and the TGI [45] was 3.46 µM. For the same compound, the GI50 [46] was 1.77 µM, the TGI [46] was 3.17 µM and the GI50 [47] was 2.15 µM. For the same compound, the TGI [47] was 3.65 µM, the GI50 [48] was 1.79 µM and the TGI [48] was 3.32 µM. The GI50 [49] was 2.36 µM, the TGI [49] was 5.71 µM and the GI50 [50] was 1.81 µM. It also gave a TGI [50] of 3.25 µM.
